{"source": "patent US11693017B2", "about": "“Small molecule biosensors” (President and Fellows of Harvard College, priority 2015, dated 2023)", "key": {"[1]": {"test_system": "DIG-Cas9 fusion in K562 cell line containing a broken EGFP", "experiment": "TF-biosensor-Cas9 assay (EGFP repair)", "assay_type": "cell-based, human", "details": "48-hour incubation", "procedure": "Construct integration was carried out as for the Cas9 experiments for EGFP assays, except that the constructs were integrated into K562 containing a broken EGFP reporter construct. Introduction of an engineered nuclease along with a donor oligonucleotide can correct the EGFP and produce fluorescent cells. Upon successful integration (˜10 days after initial transfection), 500,000 cells were nucleofected with 500 ng of guide RNA (sgRNA) and 2 μg of donor oligonucleotide. Nucleofected cells were then collected with 200 μL of media and 50 μL aliquots were added to wells containing 950 μL of media. Each nucleofection was split into four separate wells containing 1 μM of digoxigenin, 25 μM of progesterone, or no small molecule. Forty-eight hours later, cells were analyzed using flow cytometry and the percentage of EGFP positive cells was determined."}, "[2]": {"test_system": "G-DIG1-V-Matα2 biosensor with pUAS::Luc in transgenic Arabidopsis plants", "experiment": "TF-biosensor assays in transgenic Arabidopsis plants", "assay_type": "in vivo, Arabidopsis thaliana", "procedure": "Transgenic plants expressing the digoxin biosensor genetic circuit were tested for digoxigenin-induced luciferase expression by placing 14-16 day old plants in liquid MS (-sucrose) media supplemented with 0.1 mM digoxigenin in 24-well plates, and incubated in a growth chamber at 24° C., […] light.\nLuciferase expression was measured by imaging plants with a Stanford Photonics XR/MEGA-10 ICCD Camera, after spraying luciferin and dark adapting plants for 30 minutes. Luciferase expression was quantified using Piper Control (v.2.6.17) software. Plants from line KJM58-10 were used to test for specificity of induction by incubating plants, as described above, in 0.1 mM digoxigenin, 0.1 mM digitoxigenin, and 0.02 mM β-estradiol. All chemicals were obtained from Sigma-Aldrich (St. Louis, Mo.)."}, "[3]": {"test_system": "LexA-based TF-biosensors with DIG1 and B42", "experiment": "Luciferase reporter assay in yeast with LexA-based TF-biosensor", "assay_type": "cell-based, Saccharomyces cerevisiae", "details": "reporter promoter containing LexA-binding sites", "procedure": "Yeast strains containing either a plasmid-borne or integrated luciferase reporter were transformed with p16C plasmids encoding TF-biosensors. Transformants were grown in triplicate overnight at 30° C. in SD-ura media containing 2% glucose in sterile glass test tubes on a roller drum. After ˜16 hours of growth, OD600 of each sample was measured and cultures were back diluted to OD600=0.2 in fresh SD-ura media containing steroid dissolved in DMSO or a DMSO control (1% DMSO final). Cultures were grown at 30° C. on roller drum for 8 hrs prior to taking readings. Measurement of luciferase activity was adapted from a previously reported protocol^58. 100 uL of each culture was transferred to a 96-well white NUNC plate. 100 uL of 2 mM D-luciferin in 0.1 M sodium citrate (pH 4.5) was added to each well of the plate and luminescence was measured on a Victor 3V after 5 minutes."}, "[4]": {"biological_target": "DIG10.3 (DIG0)", "details": "cited from earlier work"}, "[5]": {"test_system": "degron-G-PRO1-V in HIS3 reporter strain PJ69-4a", "experiment": "Yeast spotting (HIS3 growth) assay", "assay_type": "cell-based, Saccharomyces cerevisiae", "details": "-his media", "procedure": "Yeast strain PJ69-4a transformed with p16C plasmids containing degron G-DIG-V variants were first inoculated from colonies into SD-ura media and grown at 30° C. overnight (16 h). 1 mL of each culture was pelleted by centrifugation (3000 rcf, 2 min), resuspended in 1 mL of fresh SD-ura and the OD660 was measured. Each culture was then diluted in SD-ura media to an OD660=0.2 and incubated at 30° C. for 4-6 hrs. 1 mL of each culture was pelleted and resuspended in sterile, distilled water and the OD660 measured again. Each transformant was then diluted to an OD660=0.1. Four 1/10 serial dilutions of each culture were prepared in sterile water (for a total of 5 solutions). 10 μL of each dilution was spotted in series onto several SD-ura-his agar plates containing 1 mM 3-aminotriazole and the indicated steroid."}, "[6]": {"biological_target": "PRO0", "details": "cited from earlier work"}}, "data": [{"molecule": "C[C@]12CC[C@H](O)C[C@H]1CC[C@@H]1[C@@H]2C[C@@H](O)[C@]2(C)[C@@H](C3=CC(=O)OC3)CC[C@]12O", "note": "[digoxigenin]", "values": [{"measurement": "increase in GFP positive cells relative to the mock control", "setting": "[1]", "result": "~18", "unit": "fold"}, {"measurement": "induction of luciferase activity compared to the uninduced control", "setting": "[2]; after 42 hours, T1 transgenic plants", "result": "30-50 fold"}]}, {"molecule": "C[C@H]1O[C@@H](O[C@H]2[C@@H](O)C[C@H](O[C@H]3[C@@H](O)C[C@H](O[C@H]4CC[C@@]5(C)[C@H](CC[C@@H]6[C@@H]5C[C@@H](O)[C@]5(C)[C@@H](C7=CC(=O)OC7)CC[C@]65O)C4)O[C@@H]3C)O[C@@H]2C)C[C@H](O)[C@@H]1O", "note": "[digoxin]", "values": [{"measurement": "activation in the presence of digoxin", "setting": "[3]", "result": "~40", "unit": "fold"}, {"measurement": "induction of the biosensor", "setting": "[2]; transgenic Arabidopsis plants", "result": "capable of inducing"}, {"measurement": "affinity of binding to DIG10.3 (DIG0)", "setting": "[4]", "result": "picomolar"}]}, {"molecule": "CC(=O)[C@H]1CC[C@H]2[C@@H]3CC=C4C[C@@H](O)CC[C@]4(C)[C@H]3CC[C@]12C", "note": "[pregnenolone]", "values": [{"measurement": "growth of histidine auxotrophic reporter strain", "setting": "[5]", "result": "not"}]}, {"molecule": "CC(=O)[C@H]1CC[C@H]2[C@@H]3CCC4=CC(=O)CC[C@]4(C)[C@H]3CC[C@]12C", "note": "[progesterone]", "values": [{"measurement": "growth of histidine auxotrophic reporter strain", "setting": "[5]", "result": "stimulated"}, {"measurement": "affinity of binding to PRO0", "setting": "[6]", "result": "nanomolar"}]}]}
